From patent US9017645B2, “Homoglutamic acid derivatives” (Piramal Imaging SA, priority 2009, dated 2015) come the findings set out here.

The test system of one series is H460 (human NSCLC) cells. The experiment in a line: Cell uptake of F-18 labeled tracer in H460 cells. In kind it is cell-based. The conditions noted are these: 0.25 MBq, 60 min incubation, PBS 0.1% BSA. The protocol: FIG. 4: Time dependent uptake of (2S)-2-amino-5-[3-[^18F]fluoropropyl]hexanedioic acid was determined. H460 cells were incubated with 0.25 MBq (2S)-2-amino-5-[3-[^18F]fluoropropyl]hexanedioic acid for up to 60 min and the cell-bound fraction was determined after 10, 20, 30 and 60 min)
Cell uptake & Retention of (2S)-2-amino-5-[3-[^18F]fluoropropyl]hexanedioic acid—For determination of the biological activity of (2S)-2-amino-5-[3-[^18F]fluoropropyl]hexanedioic acid, the F-18 labeled compound was used as tracer in a cell uptake experiment using H460 (human NSCLC) cells. Approximately 100.000 cells were incubated with 0.25 MBq (2S)-2-amino-5-[3-[^18F]fluoropropyl]hexanedioic acid for up to 60 minutes in PBS-buffer containing 0.1% BSA and the cell-bound fraction was determined. A time-dependent uptake was observed during the 60 min incubation period. Approximately 20% of applied dose was taken up by the cells during the 60 min incubation period (FIG. 4).

Another series concerns H460 tumor cells. Description: Retention of activity in H460 tumor cells under efflux conditions. The series is classed as cell-based, human. The conditions noted are these: H460 cells loaded 30 min, then 30 min incubation in new buffer (efflux conditions). The procedure: FIG. 5: Retention of (2S)-2-amino-5-[3-[^18F]fluoropropyl]hexanedioic acid in H460 tumor cells. H460 cells were loaded with 0.25 MBq (2S)-2-amino-5-[3-[^18F]fluoropropyl]hexanedioic acid for 30 min in PBS/BSA. After washing, the cells were incubated with new buffer (without radioactivity) for additional 10, 20, 30 min. The release of radioactivity into the supernatant as well as the retention inside the cells was determined.
In a second experiment, the retention of activity in tumor cells was examined. H460 cells were loaded with 0.25 MBq (2S)-2-amino-5-[3-[^18F]fluoropropyl]hexanedioic acid for 30 minutes in PBS/BSA-buffer. After this uptake, the buffer was removed and the cells were washed with PBS. The cells were then incubated with new PBS-buffer (without activity) for up to 30 min. The release of activity into the supernatant as well as the retention of activity inside the cells was examined. It was discovered, that more than 80% of activity were retained in the tumor cells after 30 min incubation under these efflux conditions (see FIG. 5).

For series [1], the system named is NCI-H460 (human NSCLC) tumor bearing nude-rats. Description: PET imaging in NCI-H460 tumor bearing nude-rats. The series is classed as in vivo, nude-rats (RH-Foxn1 nu/nu). The conditions noted are these: 8.35 MBq i.v., PET at 60 min p.i. for 10 min. The procedure:
FIG. 6: PET-Imaging of (2S)-2-amino-5-[3-[^18F]fluoropropyl]hexanedioic acid in H460 tumor bearing rats. 8.35 MBq of radioactive tracer was injected i.v. into rats. PET images were obtained using the Siemens Inveon PET/CT scanner from 60 min p.i. for 10 min.
PET imaging. (2S)-2-amino-5-[3-[^18F]fluoropropyl]hexanedioic acid was examined in NCI-H460 (human NSCLC) tumor bearing nude-rats (RH-Foxn1 nu/nu) using PET-Imaging. 8.35 MBq of (2S)-2-amino-5-[3-[^18F]fluoropropyl]hexanedioic acid was injected into the rat. PET images were acquired at 60 min p.i. for 10 min. […] 3.2% of the injected dose was taken up per gram of tumor as was determined by region of interest (ROI) analysis (FIG. 6).

On to `N[C@@H](CCC(CCC[18F])C(=O)O)C(=O)O` (stereo partly drawn) [(2S)-2-amino-5-[3-[^18F]fluoropropyl]hexanedioic acid], for which the “cell uptake (cell-bound fraction)” value in the series with H460 (human NSCLC) cells is “Approximately 20 % of applied dose”. For the same molecule, the “activity retained in the tumor cells” value in the series with H460 tumor cells is listed as “more than 80%”. Also, in series [1], the “tumor uptake by region of interest (ROI) analysis” value is reported as 3.2 % of the injected dose per gra and the “visibility of the tumor in PET images” value is listed as “very well visible”.
